Assays:
[1] = tested on: differentiated U-937 cells; assay: Human cellular U-937 autophagy induction assay (anti-LC3); assay type: cell-based; settings: for Fluorescence (LC3): 1.0 μM, 12 hours; for activation at 1 µM: Homo sapiens, U-937, 12 h, read-out: Induction of autophagy with respect to the untreated control
Experimental: The induction of autophagy was monitored using anti-LC3 antibodies to detect LC3 on the autophagosome in human U-937 pro-monocytic histiocytic lymphoma cells (ATCC, Manassas, Va., USA), which generate morphologies characteristic of macrophages upon induction by various stimuli. U-937 cells were cultured in RPMI-1640 medium with L-glutamine and sodium bicarbonate (Sigma-Aldrich, St Louis, Mo.) supplemented with 10% fetal bovine serum (FBS) and 1% penicillin in 25 cm2 tissue flasks at 37° C. in a 5% CO2 humidified atmosphere and passaged every 2-3 days. U-937 cells were seeded in 96 well plates at 5×10^5 cells/mL and stimulated with 100 ng/mL PMA to induce differentiation for 24 hours. The cells were then treated with the various cannabinoids at 1.0 μM concentrations for 12 hours. 30 μM chloroquine was used as a positive control. After treatment, the cells were fixed using 3.7% formaldehyde in PBS for 15 minutes at room temperature and washed with PBS to remove the fixative. Permeabilization reagent (0.2% Triton X-100 in PBS) (Sigma-Aldrich) was added, the cells were incubated for 15 minutes at room temperature and then the cells were washed with PBS to remove the permeabilization reagent. LC3B rabbit polyclonal antibody (Invitrogen) was added at a final concentration of 0.5 μg/ml for 1 hour at room temperature and the cells were washed with PBS remove the primary antibody. Secondary conjugated goat anti-rabbit polyclonal antibody (Thermo Scientific) was then added at a final concentration of 2.0 μg/ml for 1 hour at room temperature. The cells were washed, Hoechst dye was added to stain the nucleus and the cells were imaged using an Arrayscan VTI high-content screening (HCS) reader (Thermo Scientific) with the appropriate filters and the data was analyzed using the vHCS Scan software.
Chloroquine at a concentration of 30 μM was included as a positive control. The ability to induce autophagy was determined as a percentage with respect to the untreated control.

DPPH antioxidant assay = assay type: biochemical; settings: 100 μM; for % RSA (radical scavenging activity): 1 hour
Experimental: The ability of the cannabinoids to act as potential antioxidants was assessed using the 2,2-diphenyl-1-picrylhydrazyl (DPPH) antioxidant assay. The cannabinoids CBDA, CBD, CBDVA, CBDV, CBG, THCV, and the 1:1 CBD:CBDA mixture had the highest antioxidant activities with radical scavenging activities of 38.19%, 48.00%, 43.81%, 44.21%, 44.28%, 45.71%, and 43.74%, respectively.
The 2,2-diphenyl-1-picrylhydrazyl (DPPH) free radical (Alfa Aesar) was prepared at 0.1 mM in ethanol. The cannabinoids were tested at a final concentration of 100 uM. 2 uL of 7.5 mM stock solutions of the cannabinoids to be tested in DMSO were added to 148 uL of 0.1 mM DPPH to achieve a final concentration of 100 μM in the assay. Ascorbic acid (Thermo Scientific) at a final concentration of 10 mg/ml was used as a positive control. The reaction mixture was incubated in the dark at room temperature for 1 hour, the absorbance of the mixture was read at 517 nm using a Spectra Max 5M microplate reader (Molecular Devices, LLC, Sunnyvale, Calif., USA) and the absorbance was converted to percent radical scavenging activity (% RSA) using the following formula: % RSA=[(Absorbance of the control−Absorbance of the sample)/(Absorbance of the control)]×100.
Free radical production occurs when the immune system is activated and antioxidants represent potential effective treatments for inflammatory conditions and autoimmune diseases. […] The DPPH antioxidant assay can be used to measure the ability of a compound to scavenge free radicals by measuring the ability of compounds to hydrogenate and reduce DPPH. The DPPH assay was conducted on CBCA, CBDA, CBDVA, CBGA, CBLA, CBNA, THCVA, and their decarboxylated derivatives as well as the 1:1 CBD:CBDA mixture.

[2] = tested on: cytokine levels in differentiated THP-1 cells treated with LPS; assay: THP-1 human cellular LPS cytokine assay, four independent experiments, per cytokine; assay type: cell-based; settings: LPS 20 ng/mL
[3] = tested on: cytokines induced in mice by LPS; assay: Mouse LPS cytokine animal model (Example 3), cannabinoids in PB with 5% DMSO; assay type: in vivo; settings: 5 mg/kg
Experimental: This experiment was conducted to compare the ability of CBD, CBDA or the 1:1 equimolar mixture of CBD:CBDA to suppress the induction of cytokines whose expression levels were induced in mice by LPS.
The ability of agents to suppress the immune system can be tested in vivo using an LPS mouse model, in which mice are injected with LPS to cause an immune response (Field et al., 1970; Ghezzi P and Sipe J D, 1988).
Four 20 g female C57BL/6 mice were used per group. The experimental mice were first injected with 0.1 mL of the cannabinoids prepared at 1 mg/mL in phosphate buffer (PB) with 5% DMSO to yield a final dose of 5 mg/kg, followed one hour later by the injection of 0.1 mL of 0.02 mg/mL LPS in PB to yield a final dose of 0.1 mg/kg. Mice injected with 0.1 mL of PB with 5% DMSO and 0.1 mL of PBS served as a non-induced control and mice injected with 0.1 mL of PB with 5% DMSO and 0.1 mL of 0.02 mg/mL LPS in PB served as a LPS untreated control. After allowing two hours for the immune system to be induced by LPS, the mice were then euthanized, heart punctures performed to extract the blood, which was allowed to coagulate on ice for 1 hour before centrifuging to isolate the serum. The levels of 32 of the most common mouse cytokines (Eve Technologies, Calgary, Canada, Table 9) were determined by multi-plex analysis.

[4] = tested on: cytokine levels in differentiated THP-1 cells treated with LPS; assay: THP-1 human cellular LPS cytokine assay, three independent experiments, total averaged suppression; settings: for inhibition at 2 µM: Homo sapiens, THP-1, 4 h, read-out: % Cytokine Suppression (total averaged)
Experimental: Cells were seeded onto 24-, or 12-well plates and incubated for 48 hours to 72 hours to allow for differentiation. […] Supernatants were collected for quantification of human cytokine levels to assess the cytokine response. Cells remaining after the supernatant collection were tested to ensure they had at least 90% viability as determined by Alamar Blue assays. To conduct the Alamar Blue assays, supernatants were replaced with culture medium containing 1× Alamar Blue reagent and incubated overnight. Cell viability was assessed by measuring relative fluorescent units (RFU) on the SpectraMax M2e microplate reader (Molecular Devices Inc., Sunnyvale, Calif., USA) at Excitation 560 nm and Emission 590 nm. Controls included untreated cells with DMSO at the same concentration as the treated cells, LPS stimulated cells with DMSO at the same concentration as the treated cells and LPS stimulated cell with the various treatments. The levels of 42 of the most common human cytokines (Eve Technologies, Calgary, Canada Table 6) were determined by multi-plex analysis.
For this reason, the level of cytokine suppression was determined for each cytokine by each cannabinoid that was tested and the total averaged suppression for each cannabinoid was determined by dividing the total suppression by the number of the cytokines that were analyzed.

[5] = tested on: cytokines induced in mice by LPS; assay: Mouse LPS cytokine model, Example 6D, ALA, DHA and EPA omega-3 samples; assay type: in vivo; settings: mouse, in vivo
Experimental: A series of experiments using a mouse LPS cytokine animal model were performed. In the mouse LPS cytokine animal model, mice were injected with LPS, which induced the immune response shortly after the mice were injected with one of the potential anti-inflammatory compounds under evaluation (the “test compound”). The efficacy of the test compound was evaluated based on its ability to reduce expression levels of inflammatory cytokines that were elevated due to the immune response. The test compounds included a cannabinoid, an omega fatty acid, and a cannabinoid-omega fatty acid composition.
The mice were intraperitoneally injected with 0.1 mL of the test compound. One hour later, the mice were intraperitoneally injected with 0.1 mL of LPS in phosphate buffered saline (PBS). Four hours later, a heart puncture was performed and the blood was allowed to clot to generate serum. 0.1 mL of the serum was diluted 1:2 with PBS and stored at −80° C. The serum was then sent to a laboratory where a mouse cytokine array/chemokine array 31-plex (MD31) analysis was performed that analyzed the expression levels of the 32 cytokines/chemokines listed in Table 9, above.
For each considered test compound, the ability of the test compound to suppress each inflammatory cytokine was calculated by determining the percent suppression.
36 female C57BL/6 mice that weighed approximately 20 g each were obtained and allowed to acclimate for one week after arrival with unlimited access to food and water. On the day of the study, the mice were weighed and split into eight groups of four mice each so that the average weight of each group was as close as possible to each other.
All of the omega fatty acid samples that were tested were diluted so the dose was 12.5 mg of total omega fatty acids per mouse. […] The omega fatty acids samples tested included: (1) pollock oil, 456 mg/mL omega unsaturated fatty acids. The pollock oil contained a mixture of anti-inflammatory omega-3, omega-7 and omega-9 unsaturated fatty acids. […] (2) Flaxseed oil, 656 mg/mL anti-inflammatory omega unsaturated fatty acids. The flaxseed oil contained a mixture of anti-inflammatory omega-3 and omega-9 unsaturated fatty acids. The omega-3 and omega-9 unsaturated fatty acids constituted 77.6% and […], respectively, of the anti-inflammatory omega fatty acids contained in the flaxseed oil. A 12.5 mg dose contained 9.7 mg of ALA in the triglyceride form. (3) Mono 2:1 DHA:EPA, 744 mg/mL omega-3 unsaturated fatty acids that were primarily DHA or EPA. A 12.5 mg dose contained 7.81 mg of DHA and 3.91 mg of EPA. The omega-3 unsaturated fatty acids were in the free mono form. […] A 12.5 mg dose contained 3.85 mg of DHA and 7.69 mg of EPA. The omega-3 unsaturated fatty acids were in the free mono form. (5) Tri 2:1 DHA:EPA, 678.9 mg/mL omega-3 unsaturated fatty acids that were primarily DHA or EPA. A 12.5 mg dose contained 7.88 mg of DHA and 3.94 mg of EPA. The omega-3 unsaturated fatty acids were in the triglyceride form. (6) Tri 1:2 DHA:EPA, 678.9 mg/mL omega-3 unsaturated fatty acids that were primarily DHA or EPA. A 12.5 mg dose contained 3.60 mg of DHA and 7.19 mg of EPA. The omega-3 unsaturated fatty acids were in the triglyceride form.

[6] = rats; cited from earlier work

C=C(C)[C@@H]1CCC(C)=C[C@H]1c1c(O)cc(CCCCC)c(C(=O)O)c1O [CBDA, 2,4-Dihydroxy-3-[(1R,6R)-6-isopropenyl-3-methyl-2-cyclohexen-1-yl]-6-pentylbenzoic acid]
Fluorescence (LC3) [1]: 37.64
activation at 1 µM [1]: -22%
radical scavenging activity compared to the untreated control (DPPH antioxidant assay): at least two-fold
% RSA (radical scavenging activity) (DPPH antioxidant assay): 38.19%
EGF suppression ([2]; 2 µM): 5.34%
FGF-β suppression ([2]; 2 µM): 30.37%
Flt-3L suppression ([2]; 2 µM): 47.81%
G-CSF suppression ([2]; 2 µM): 77.66%
GM-CSF suppression ([2]; 2 µM): 43.68%
IFNγ suppression ([2]; 2 µM): 60.44%
IL-1α suppression ([2]; 2 µM): 44.04%
IL-1β suppression ([2]; 2 µM): 53.82%
IL-4 suppression ([2]; 2 µM): 10.49%
IL-6 suppression ([2]; 2 µM): 69.39%
IL-7 suppression ([2]; 2 µM): 37.62%
IL-10 suppression ([2]; 2 µM): 23.20%
IL-12 p70 suppression ([2]; 2 µM): 8.24%
IL-15 suppression ([2]; 2 µM): 47.99%
IL-18 suppression ([2]; 2 µM): 37.34%
IP-10 suppression ([2]; 2 µM): 73.87%
MCP-1 suppression ([2]; 2 µM): 54.97%
MIP-1β suppression ([2]; 2 µM): 47.92%
TNFα suppression ([2]; 2 µM): 28.56%
TNFβ suppression ([2]; 2 µM): 45.83%
Average cytokine suppression [2]: 42.43%
Average cytokine suppression [3]: 13.71%
GM-CSF suppression [3]: 27.86%
IFNγ suppression [3]: 31.60%
IL-1β suppression [3]: 11.89%
IL-2 suppression [3]: 7.82%
IL-6 suppression [3]: 6.09%
IL-12β p40 suppression [3]: 58.93%
IL-13 suppression [3]: 4.16%
IL-17 suppression [3]: 7.86%
IP-10 suppression [3]: 4.58%
KC suppression [3]: 18.15%
LIF suppression [3]: 28.12%
M-CSF suppression [3]: −51.56%
MIP-1α suppression [3]: 14.86%
MIP-1β suppression [3]: 9.12%
MIP-2 suppression [3]: 20.19%
TNF-α suppression [3]: 19.69%
effectiveness at reducing elevated cytokine levels relative to dexamethasone [4]: at least half as effective as dexamethasone
inhibition at 2 µM [4]: 37.2%

CCCCCc1cc(O)c2c(c1)OC(C)(C)c1ccc(C)cc1-2 [CBN, 6,6,9-Trimethyl-3-pentyl-6H-benzo[c]chromen-1-ol]
Fluorescence (LC3) [1]: 40.80
activation at 1 µM [1]: -15.4%
% RSA (radical scavenging activity) (DPPH antioxidant assay): 33.83%
effectiveness at reducing elevated cytokine levels relative to dexamethasone [4]: at least half as effective as dexamethasone
inhibition at 2 µM [4]: 37%

CCCCCc1cc2c(c(O)c1C(=O)O)-c1cc(C)ccc1C(C)(C)O2 [CBNA, 1-Hydroxy-6,6,9-trimethyl-3-pentyl-6H-benzo[c]chromene-2-carboxylic acid]
Fluorescence (LC3) [1]: 36.89
activation at 1 µM [1]: -23.5%
% RSA (radical scavenging activity) (DPPH antioxidant assay): 24.92%
effectiveness at reducing elevated cytokine levels relative to dexamethasone [4]: at least half as effective as dexamethasone
inhibition at 2 µM [4]: 34%

CC/C=C\C/C=C\C/C=C\C/C=C\C/C=C\C/C=C\CCC(=O)O [DHA, (4Z,7Z,10Z,13Z,16Z,19Z)-docosa-4,7,10,13,16,19-hexaenoic acid]
anti-inflammatory capability among ALA, DHA and EPA [5]: highest anti-inflammatory capability

CCCc1cc(O)c2c(c1)OC(C)(C)[C@@H]1CCC(C)=C[C@@H]21 [THCV, (6aR,10aR)-6,6,9-trimethyl-3-propyl-6H,6aH,7H,8H,10aH-benzo[c]isochromen-1-ol]
Fluorescence (LC3) [1]: 42.14
activation at 1 µM [1]: -12.7%
radical scavenging activity compared to the untreated control (DPPH antioxidant assay): at least two-fold
% RSA (radical scavenging activity) (DPPH antioxidant assay): 45.71%
effectiveness at reducing elevated cytokine levels relative to dexamethasone [4]: at least half as effective as dexamethasone
inhibition at 2 µM [4]: 34.8%

CCCc1cc2c(c(O)c1C(=O)O)[C@@H]1C=C(C)CC[C@H]1C(C)(C)O2 [THCVA, (6aR,10aR)-6a,7,8,10a-tetrahydro-1-hydroxy-6,6,9-trimethyl-3-propyl-6H-Dibenzo[b,d] pyran-2-carboxylic acid]
Fluorescence (LC3) [1]: 66.45
activation at 1 µM [1]: 37.7%
% RSA (radical scavenging activity) (DPPH antioxidant assay): 29.22%
effectiveness at reducing elevated cytokine levels relative to dexamethasone [4]: at least half as effective as dexamethasone
inhibition at 2 µM [4]: 28.4%

C[S+](C)[O-] [dimethyl sulfoxide]
LD50 [6]: 14,500 mg/kg

CC(O)CO (centres unmarked) [propylene glycol]
LD50 [6]: 20,000 mg/kg
